Measurements published in BigSolDB 2.1.

C[C@@H]1O[C@@H](O[C@H]2[C@H](Oc3cc(O)c4c(c3)O[C@H](c3ccc(O)cc3)CC4=O)O[C@H](CO)[C@@H](O)[C@@H]2O)[C@H](O)[C@H](O)[C@H]1O
solubility (mole fraction)
Settings	288.15 K	293.15 K	298.15 K	303.15 K	308.15 K	313.15 K	318.15 K	323.15 K	328.15 K
in ethyl acetate	0.000184	0.000248	0.00031	0.00035	0.000404	0.000458	0.000513	0.000594	0.000646
in isopropanol	1.26e-05	1.59e-05	2.1e-05	2.46e-05	2.97e-05	3.34e-05	3.75e-05	4.29e-05	4.79e-05
in methanol	0.00158	0.00168	0.00197	0.00224	0.00264	0.00291	0.00322	0.00359	0.00389
in n-butanol	4.85e-05	6.34e-05	7.46e-05	0.000105	0.000157	0.000218	0.000285	0.000345	0.000391
in n-hexane	9.97e-08	1.39e-07	1.75e-07	2.21e-07	2.63e-07	3.12e-07	3.6e-07	4.04e-07	4.55e-07

O=C1C[C@@H](c2ccc(O)cc2)Oc2cc(O)cc(O)c21
solubility (mole fraction)
Settings	288.15 K	293.15 K	298.15 K	303.15 K	308.15 K	313.15 K	318.15 K	323.15 K	328.15 K
in ethyl acetate	0.00998	0.0133	0.0154	0.0171	0.0191	0.0215	0.0244	0.027	0.0293
in isopropanol	0.0101	0.0116	0.0141	0.0161	0.0185	0.0204	0.0218	0.0252	0.0264
in methanol	0.00875	0.0094	0.00991	0.0105	0.0114	0.0144	0.0173	0.0187	0.0205
in n-butanol	0.000972	0.00137	0.00175	0.00215	0.00259	0.00299	0.00344	0.00388	0.0042
in n-hexane	2.92e-06	3.7e-06	4.71e-06	5.42e-06	6.46e-06	7.17e-06	7.73e-06	8.69e-06	9.09e-06
